# Assay results as given in US20200338045A1, “ISOINDOLINE COMPOSITIONS AND METHODS FOR TREATING NEURODEGENERATIVE DISEASE” (priority 2017, published 2020).
# Tested on: CSF proteins
# Test: LC/MSMS protein expression in CSF (COG0102)
# Assay type: in vivo, human
# Procedure: Plasma and CSF protein expression were measured by LC/MSMS in samples drawn prior to dosing (Day 0) and at end of dosing (Day 28) and were compared within each patient and between dosing groups.
# This trial (ClinicalTrials.gov NCT02907567) was a randomized, double-blind, placebo-controlled clinical trial in mild to moderate Alzheimer's patients (MMSE 18-26) (See FIG. 1 for clinical trial design). The trial was conducted at six sites in Australia. Patients were randomized into placebo (n=5) or CT1812-treated groups: 90 mg (n=4), 280 mg (n=5) or 560 mg (n=5) and treated once daily for 28 days. Clinical chemistry was done at Sydpath (Sydney, AU). Pharmacokinetics were done at CPR Pharma Services (Adelaide, AU). Cerebrospinal fluid samples were taken at screening and day 21-28 of treatment and aliquoted. Plasma samples were taken at screening or Day 1 (one sample) and day 14-28, then spun down to separate plasma and aliquoted. One set of CSF samples was analyzed for Alzheimer's disease biomarkers; protein measurements (Aβ42, A1340, total tau, tau phosphorylated at threonine 181 (phosphorylated tau), NFL and neurogranin) were performed using commercially available ELISA assays from Fujirebio according to the manufacturer's instructions (INNOTEST β-AMYLOID(1-42), INNOTEST β-AMYLOID(1-40), INNOTEST hTau Ag, INNOTEST PHOSPHO-TAU(181P), Uman Diagnostics NFL assay). Neurogranin was measured with a sandwich ELISA method using antibodies Ng2 and Ng22 developed at the University of Gotteborg (Kvartsberg et al. 2015). Identical aliquots of CSF, and plasma were analyzed for protein expression changes via LC/MSMS at Caprion (see below).
# Matched screening and day 28 plasma and CSF samples were analyzed by LC/MSMS at Caprion Biosciences Inc. Plasma was depleted of high and medium abundance proteins using a commercial immunoaffinity column, IgY14-Supermix (Sigma). CSF was depleted of only 14 high abundance proteins using MARS-14 (Agilent). All samples were digested with trypsin and plasma samples were fractionated by strong cation exchange chromatography (3 fractions). Both CSF and plasma samples were analyzed using a NanoAcquity UPLC coupled to a Q Exactive MS. […] The 12 most intense peaks per survey scan with charge states 2-8 fragmented and scanned with a mass range from 200 to 2000 m/z at a resolution of 17,500. Raw spectrometer data files for each LC-MS run were aligned independently using Elucidator software (Rosetta Biosoftware). The MS/MS spectra were matched to corresponding peptide sequences found in the Uniprot Human protein database (January 2017) using Mascot software, allowing for up to 2 missed cleavages, a peptide tolerance of 20 ppm, and an MS/MS tolerance of 0.05 Da. Outlier detection was performed by determining the average log-intensity of all isotope groups (IG) over injection order for all samples. Samples with an average value greater than 2 standard deviations from the mean were flagged for investigation. Following data transformation and normalization, expression analysis of the identified isotope groups was performed and the statistical significance of each comparison was assessed with a parametric, linear mixed model (LMM) and a non-parametric Wilcoxon ranked test (ranked p-values). Expression analysis was also performed at the peptide and protein levels, which used the same methodology as above, but applied to peptide/protein intensities, derived by rolling-up the corresponding isotope group intensities. Isotope groups not detected in at least half of the samples in either of the two groups being compared were not used for the roll-up.
# Table 5 lists 30 proteins that were detected with at least 20% change in placebo vs. treated 28 days vs screening. The following values are reported for each statistical analysis performed: FC: Fold change calculated from the protein normalized intensity. FC>10 or <0.1 are unusually large and may be artifacts. […]
# [1] = 28 days vs screening, fold change
structure (smiles),measurement,setting,value
CC(C)(C)Oc1cc(CCC(C)(C)N2Cc3ccc(S(C)(=O)=O)cc3C2)ccc1O [CT1812],"Afamin, % change treated vs placebo",,−19%
same,"B3GNT9, % change treated vs placebo",,65%
same,"CD14, % change treated vs placebo",,20%
same,"Contactin 1, % change treated vs placebo",,−23%
same,"EphA4, % change treated vs placebo",,−7%
same,"FLNA, % change treated vs placebo",,−51%
same,"PDIA1, % change treated vs placebo",,21%
same,"PDIA6, % change treated vs placebo",,44%
same,"ROBO4, % change treated vs placebo",,62%
same,"SERPINA4, % change treated vs placebo",,−26%
same,"Synaptotagmin, % change treated vs placebo",,−59%
same,"Tenascin C, % change treated vs placebo",,−10%
same,"Synaptotagmin-1 expression decreased, CT1812-treated vs. placebo",28 days,63%
same,"AFM, FC (Treated)",[1],0.94
same,"ANGPTL2, FC (Treated)",[1],0.80
same,"CAMK2D, FC (Treated)",[1],1.04
same,"CD14, FC (Treated)",[1],1.18
same,"CNTN1, FC (Treated)",[1],0.97
same,"EFNB1, FC (Treated)",[1],0.97
same,"EPHA4, FC (Treated)",[1],0.94
same,"FGFR3, FC (Treated)",[1],1.12
same,"GMFB, FC (Treated)",[1],1.04
same,"GNPTG, FC (Treated)",[1],1.18
same,"HLA-H, FC (Treated)",[1],1.22
same,"ICAM2, FC (Treated)",[1],1.11
same,"LILRB4, FC (Treated)",[1],1.11
same,"MBL2, FC (Treated)",[1],0.75
same,"MDGA2, FC (Treated)",[1],1.01
same,"NPPC, FC (Treated)",[1],0.90
same,"P4HB, FC (Treated)",[1],1.10
same,"PDGFA, FC (Treated)",[1],1.15
same,"PDIA6, FC (Treated)",[1],1.15
same,"RBP4, FC (Treated)",[1],0.82
same,"ROBO1, FC (Treated)",[1],0.96
same,"ROBO4, FC (Treated)",[1],1.22
same,"SAA4, FC (Treated)",[1],1.17
same,"SEMA3F, FC (Treated)",[1],1.40
same,"SERPINA4, FC (Treated)",[1],0.88
same,"SMPDL3B, FC (Treated)",[1],0.97
same,"SYT1, FC (Treated)",[1],0.78
same,"TNC, FC (Treated)",[1],1.04
same,"TPI1, FC (Treated)",[1],0.90
same,"YWHAB, FC (Treated)",[1],0.90
same,"AFM, FC (Treated vs. Placebo)","28 days, fold change",0.84
same,"ANGPTL2, FC (Treated vs. Placebo)","28 days, fold change",0.69
same,"CAMK2D, FC (Treated vs. Placebo)","28 days, fold change",1.22
same,"CD14, FC (Treated vs. Placebo)","28 days, fold change",1.20
same,"CNTN1, FC (Treated vs. Placebo)","28 days, fold change",0.81
same,"EFNB1, FC (Treated vs. Placebo)","28 days, fold change",0.93
same,"EPHA4, FC (Treated vs. Placebo)","28 days, fold change",0.93
same,"FGFR3, FC (Treated vs. Placebo)","28 days, fold change",1.83
same,"GMFB, FC (Treated vs. Placebo)","28 days, fold change",1.41
same,"GNPTG, FC (Treated vs. Placebo)","28 days, fold change",1.26
same,"HLA-H, FC (Treated vs. Placebo)","28 days, fold change",1.37
same,"ICAM2, FC (Treated vs. Placebo)","28 days, fold change",1.23
same,"LILRB4, FC (Treated vs. Placebo)","28 days, fold change",1.25
same,"MDGA2, FC (Treated vs. Placebo)","28 days, fold change",0.71
same,"NPPC, FC (Treated vs. Placebo)","28 days, fold change",0.91
same,"P4HB, FC (Treated vs. Placebo)","28 days, fold change",1.21
same,"PDGFA, FC (Treated vs. Placebo)","28 days, fold change",1.27
same,"PDIA6, FC (Treated vs. Placebo)","28 days, fold change",1.44
same,"RBP4, FC (Treated vs. Placebo)","28 days, fold change",0.81
same,"ROBO1, FC (Treated vs. Placebo)","28 days, fold change",0.82
same,"ROBO4, FC (Treated vs. Placebo)","28 days, fold change",1.62
same,"SAA4, FC (Treated vs. Placebo)","28 days, fold change",1.35
same,"SEMA3F, FC (Treated vs. Placebo)","28 days, fold change",1.58
same,"SERPINA4, FC (Treated vs. Placebo)","28 days, fold change",0.79
same,"SMPDL3B, FC (Treated vs. Placebo)","28 days, fold change",1.24
same,"SYT1, FC (Treated vs. Placebo)","28 days, fold change",0.63
same,"TNC, FC (Treated vs. Placebo)","28 days, fold change",0.91
same,"TPI1, FC (Treated vs. Placebo)","28 days, fold change",0.87
same,"YWHAB, FC (Treated vs. Placebo)","28 days, fold change",0.81
same,"MBL2, FC (Treated vs. Placebo)","28 days, fold change, FC>10 may be artifacts",>10
same,"Afamin, With CT1812",direction of change,significantly decreased and ↓*
same,"B3GNT9, With CT1812",direction of change,dose dependently increased and ↑
same,"CD14, With CT1812",direction of change,significantly increased and ↑*
same,"Contactin 1, With CT1812",direction of change,significantly reduced and ↓*
same,"EphA4, With CT1812",direction of change,↓*
same,"FLNA, With CT1812",direction of change,trend for reduction and ↓
same,"PDIA1, With CT1812",direction of change,significantly increased and ↑*
same,"PDIA6, With CT1812",direction of change,significantly increased and ↑*
same,"ROBO4, With CT1812",direction of change,↑*
same,"SERPINA4, With CT1812",direction of change,significantly reduced and ↓*
same,"Synaptotagmin, With CT1812",direction of change,significantly decreased and reduction and decreased and ↓*
same,"Tenascin C, With CT1812",direction of change,↓*
same,"Afamin, % change baseline treated",treated group vs baseline,−7%
same,"B3GNT9, % change baseline treated",treated group vs baseline,55%
same,"CD14, % change baseline treated",treated group vs baseline,18%
same,"Contactin 1, % change baseline treated",treated group vs baseline,−3%
same,"EphA4, % change baseline treated",treated group vs baseline,−6%
same,"FLNA, % change baseline treated",treated group vs baseline,−26%
same,"PDIA1, % change baseline treated",treated group vs baseline,10%
same,"PDIA6, % change baseline treated",treated group vs baseline,15%
same,"ROBO4, % change baseline treated",treated group vs baseline,22%
same,"SERPINA4, % change baseline treated",treated group vs baseline,−13%
same,"Synaptotagmin, % change baseline treated",treated group vs baseline,−28%
same,"Tenascin C, % change baseline treated",treated group vs baseline,4%
